Laboratory results as given in patent US20090163579A1, “Novel use of nutraceutical compositions” (priority 2006, published 2009).

System: C57BLKS/J db/db mice
Assay: 3 months feeding study on muscle mass in db/db mice (NMR muscle mass, body weight, food intake)
Format: in vivo
Conditions: for effect on muscle loss (in words) / muscle mass increase: db/db mice, 3 months of treatment; for effect on muscle loss (in words) / muscle mass increase / BW (g), change from baseline / Muscle (g), change from baseline: 0.08% of diet; for muscle mass increase: control reduced by 2%; for BW (g), change from baseline / Muscle (g), change from baseline / BW (g), 5 months old mice / Muscle (g), 5 months old mice: male db/db mice, after 3 months of treatment; for BW (g), 5 months old mice / Muscle (g), 5 months old mice: 0.08% of diet as feed-ad-mix; for Muscle (g), 5 months old mice: total muscle mass by NMR
Procedure: The efficacy of resveratrol, EGCG as well as the combination of both compounds on muscle mass was tested in a 3 months feeding study in C57BLKS/J db/db mice (n=20/group). C57BLKS/J db/db mice suffer from severe metabolic disorder due to a defect in the leptin receptor and loss muscle mass as they age. Muscle wasting has been associated with chronic metabolic derangements. Moreover, muscle wasting induced by a variety of means in both rodents and humans results in similar changes in muscle anatomy, cross-sectional area, function, fiber type switching, contractile protein expression, and histology. […] These agents include anabolic steroids, growth hormone, insulin-like growth factor 1, and beta adrenergic agonists. […] Therefore, the rodent model can be used to evaluate the efficacy of compounds inhibiting muscle wasting.
Male db/db mice were obtained from Jackson Laboratory (Bar Harbor, Me., USA). Adult mice at the age of 8 weeks were used in the experiment. Mice were housed individually in plastic cages with bedding and allowed free access to standard rodent food and tap water. The animal rooms were controlled for temperature (24° C.), humidity (55%), and light (12-h light-dark cycle). The animals were randomized into four groups. Resveratrol and EGCG were administered as feed-ad-mix. Corn cellulose (1% of diet) served as a carrier substance for resveratrol and EGCG as well as a placebo when used alone. Group 1 received placebo, group 2 received a diet containing 0.08% of resveratrol; group 3 received a diet containing 0.08% of EGCG; and group 4 received a diet containing 0.08% of resveratrol and 0.08% of EGCG. Body weight and food intake were determined over the course of the study. Total muscle mass was determined by nuclear magnetic resonance (NMR) measurement after 3 months of treatment. There was no difference in food intake between the groups over the study period.

Oc1ccc(C=Cc2cc(O)cc(O)c2)cc1 [Resveratrol, resveratrol]
effect on muscle loss (in words): prevents muscle loss
muscle mass increase: 6%
BW (g), change from baseline: 3.9 g
Muscle (g), change from baseline: 1.0 g
BW (g), 5 months old mice: 34.2 g
Muscle (g), 5 months old mice: 17.0 g

(−)-epigallocatechin gallate [EGCG]
effect on muscle loss (in words): prevents muscle loss
muscle mass increase: 3%
BW (g), change from baseline: 1.0 g
Muscle (g), change from baseline: 0.5 g
BW (g), 5 months old mice: 31.4 g
Muscle (g), 5 months old mice: 16.2 g
